Experiments:
[1] = molecular target: T1, G12D-mutant human KRAS (amino acid residues 1-188) (Homo sapiens, UniProt P01116, G12D); experiment: KRAS Binding Disruption Assay (AlphaScreen; biotinylated KRpep-2d analogue or RAF1-RBD), G12D; settings: KRAS G12D; geometric mean; read-out: KRAS GMean IC50 (uM) MUTATION: G12D
T1 construct: G12D or G12C-mutant human KRAS (amino acid residues 1-188) with FLAG tag; made in house; host or cells: E. coli
Summary of the method: (§1)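 Mutant KRAS (5-20 nM) incubated 1 h at 25° C with test compound and 5-20 nM biotinylated KRpep-2d analogue or RAF1-RBD in 20 mM HEPES pH 7.5, 100 mM NaCl, 5 mM MgCl2, 0.01% Tween-20, 0.01% BSA.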

[2] = molecular target: T2, G12C-mutant human KRAS (amino acid residues 1-188) (Homo sapiens, UniProt P01116, G12C); experiment: KRAS Binding Disruption Assay (AlphaScreen; biotinylated KRpep-2d analogue or RAF1-RBD), G12C; settings: geometric mean, read-out: KRAS GMean IC50 (uM) MUTATION: G12C
T2 construct: G12D or G12C-mutant human KRAS (amino acid residues 1-188) with FLAG tag; made in house; host or cells: E. coli
Summary of the method: as §1

[3] = molecular target: T3, G12V-mutant human KRAS (amino acid residues 1-188) (Homo sapiens, UniProt P01116, G12V); experiment: KRAS Binding Competition Assay (AlphaScreen; biotinylated KRpep-2d analogue), G12V; settings: geometric mean, read-out: KRAS GMean IC50 (uM) MUTATION: G12V
T3 construct: G12V-mutant human KRAS (amino acid residues 1-188) with FLAG tag was purified from E. coli; made in house; host or cells: E. coli

Measured: IC50

Cn1cc(NC(=O)N2[C@@H]3CC[C@H]2CN(c2nc(OCC45CCCN4CCC5)nc4cc(-c5cc(O)cc6ccccc56)ccc24)C3)cn1 [P-0128, (1R,5S)-3-(7-(3-hydroxynaphthalen-1-yl)-2-((tetrahydro-1H-pyrrolizin-7a(5H)-yl)methoxy)quinazolin-4-yl)-N-(1-methyl-1H-pyrazol-4-yl)-3,8-diazabicyclo[3.2.1]octane-8-carboxamide]
0.0001 to 10 µM: all assays above

O=C(NC1CCOC1)N1[C@@H]2CC[C@H]1CN(c1nc(OCC34CCCN3CCC4)nc3cc(-c4cc(O)cc5ccccc45)ccc13)C2 (stereo partly drawn) [P-0129, (1R,5S)-3-(7-(3-hydroxynaphthalen-1-yl)-2-((tetrahydro-1H-pyrrolizin-7a(5H)-yl)methoxy)quinazolin-4-yl)-N-(tetrahydrofuran-3-yl)-3,8-diazabicyclo[3.2.1]octane-8-carboxamide]
0.0001 to 10 µM: all assays above

O=C(N[C@H]1CC[C@@H](O)C1)N1[C@@H]2CC[C@H]1CN(c1nc(OCC34CCCN3CCC4)nc3cc(-c4cc(O)cc5ccccc45)ccc13)C2 [P-0130, (1R,5S)-N-((1S,3R)-3-hydroxycyclopentyl)-3-(7-(3-hydroxynaphthalen-1-yl)-2-((tetrahydro-1H-pyrrolizin-7a(5H)-yl)methoxy)quinazolin-4-yl)-3,8-diazabicyclo[3.2.1]octane-8-carboxamide]
0.0001 to 10 µM: all assays above

O=C(N[C@H]1CC[C@H](O)C1)N1[C@@H]2CC[C@H]1CN(c1nc(OCC34CCCN3CCC4)nc3cc(-c4cc(O)cc5ccccc45)ccc13)C2 [P-0131, (1R,5S)-N-((1S,3S)-3-hydroxycyclopentyl)-3-(7-(3-hydroxynaphthalen-1-yl)-2-((tetrahydro-1H-pyrrolizin-7a(5H)-yl)methoxy)quinazolin-4-yl)-3,8-diazabicyclo[3.2.1]octane-8-carboxamide]
0.0001 to 10 µM: all assays above

CN1CC[C@H](NC(=O)N2[C@@H]3CC[C@H]2CN(c2nc(OCC45CCCN4CCC5)nc4cc(-c5cc(O)cc6ccccc56)ccc24)C3)C1 [P-0132, (1R,5S)-3-(7-(3-hydroxynaphthalen-1-yl)-2-((tetrahydro-1H-pyrrolizin-7a(5H)-yl)methoxy)quinazolin-4-yl)-N-((S)-1-methylpyrrolidin-3-yl)-3,8-diazabicyclo[3.2.1]octane-8-carboxamide]
0.0001 to 10 µM: all assays above

CN1CC[C@@H](NC(=O)N2[C@@H]3CC[C@H]2CN(c2nc(OCC45CCCN4CCC5)nc4cc(-c5cc(O)cc6ccccc56)ccc24)C3)C1 [P-0133, (1R,5S)-3-(7-(3-hydroxynaphthalen-1-yl)-2-((tetrahydro-1H-pyrrolizin-7a(5H)-yl)methoxy)quinazolin-4-yl)-N-((R)-1-methylpyrrolidin-3-yl)-3,8-diazabicyclo[3.2.1]octane-8-carboxamide]
0.0001 to 10 µM: all assays above

O=C(NC1CCNCC1)N1[C@@H]2CC[C@H]1CN(c1nc(OCC34CCCN3CCC4)nc3cc(-c4cc(O)cc5ccccc45)ccc13)C2 [P-0134, (1R,5S)-3-(7-(3-hydroxynaphthalen-1-yl)-2-((tetrahydro-1H-pyrrolizin-7a(5H)-yl)methoxy)quinazolin-4-yl)-N-(piperidin-4-yl)-3,8-diazabicyclo[3.2.1]octane-8-carboxamide]
0.0001 to 10 µM: all assays above

O=C1NCCC1NC(=O)N1[C@@H]2CC[C@H]1CN(c1nc(OCC34CCCN3CCC4)nc3cc(-c4cc(O)cc5ccccc45)ccc13)C2 (stereo partly drawn) [P-0135, (1R,5S)-3-(7-(3-hydroxynaphthalen-1-yl)-2-((tetrahydro-1H-pyrrolizin-7a(5H)-yl)methoxy)quinazolin-4-yl)-N-(2-oxopyrrolidin-3-yl)-3,8-diazabicyclo[3.2.1]octane-8-carboxamide]
0.0001 to 10 µM: all assays above

Oc1cc(-c2ccc3c(N4C[C@H]5CC[C@@H](C4)N5)nc(OCC45CCCN4CCC5)nc3c2F)c2c(Cl)cccc2c1 [P-0136, 4-(4-((1R,5S)-3,8-diazabicyclo[3.2.1]octan-3-yl)-8-fluoro-2-((tetrahydro-1H-pyrrolizin-7a(5H)-yl)methoxy)quinazolin-7-yl)-5-chloronaphthalen-2-ol]
0.0001 to 10 µM: all assays above

Oc1cc(-c2c(F)cc3c(N4C[C@H]5CC[C@@H](C4)N5)nc(OCC45CCCN4CCC5)nc3c2F)c2c(Cl)cccc2c1 [P-0137, 4-(4-((1R,5S)-3,8-diazabicyclo[3.2.1]octan-3-yl)-6,8-difluoro-2-((tetrahydro-1H-pyrrolizin-7a(5H)-yl)methoxy)quinazolin-7-yl)-5-chloronaphthalen-2-ol]
0.0001 to 10 µM: all assays above

CN1CC[C@@H](NC(=O)N2[C@@H]3CC[C@H]2CN(c2nc(OCC45CCCN4CCC5)nc4c(F)c(-c5cc(O)cc6ccccc56)ccc24)C3)C1 [P-0186, (1R,5S)-3-(8-fluoro-7-(3-hydroxynaphthalen-1-yl)-2-((tetrahydro-1H-pyrrolizin-7a(5H)-yl)methoxy)quinazolin-4-yl)-N-((R)-1-methylpyrrolidin-3-yl)-3,8-diazabicyclo[3.2.1]octane-8-carboxamide]
0.0001 to 10 µM: all assays above

CN1CCC[C@H]1COc1nc(N2CC3COCC(C2)N3)c2ccc(-c3cc(O)cc4ccccc34)c(F)c2n1 [P-0249, 4-(4-(3-oxa-7,9-diazabicyclo[3.3.1]nonan-7-yl)-8-fluoro-2-(((S)-1-methylpyrrolidin-2-yl)methoxy)quinazolin-7-yl)naphthalen-2-ol]
0.0001 to 10 µM: all assays above

CN1CCC[C@H]1COc1nc(N2C[C@H]3CC[C@@H](C2)N3C(=O)CC2SC(=O)NC2=O)c2ccc(-c3cc(O)cc4ccccc34)c(F)c2n1 (stereo partly drawn) [P-0279, 5-(2-((1R,5S)-3-(8-fluoro-7-(3-hydroxynaphthalen-1-yl)-2-(((S)-1-methylpyrrolidin-2-yl)methoxy)quinazolin-4-yl)-3,8-diazabicyclo[3.2.1]octan-8-yl)-2-oxoethyl)thiazolidine-2,4-dione]
0.0001 to 10 µM: all assays above

O=C1NC(=O)C(CC(=O)N2[C@@H]3CC[C@H]2CN(c2nc(OCC45CCCN4CCC5)nc4c(F)c(-c5cc(O)cc6ccccc56)ccc24)C3)S1 (stereo partly drawn) [P-0299, 5-(2-((1R,5S)-3-(8-fluoro-7-(3-hydroxynaphthalen-1-yl)-2-((tetrahydro-1H-pyrrolizin-7a(5H)-yl)methoxy)quinazolin-4-yl)-3,8-diazabicyclo[3.2.1]octan-8-yl)-2-oxoethyl)thiazolidine-2,4-dione]
0.0001 to 10 µM: all assays above

CN1CCC[C@H]1COc1nc(N2CC3CCC2CN3C(=O)CC2SC(=O)NC2=O)c2ccc(-c3cc(O)cc4ccccc34)c(F)c2n1 (stereo partly drawn) [P-0328, 5-(2-(5-(8-fluoro-7-(3-hydroxynaphthalen-1-yl)-2-(((S)-1-methylpyrrolidin-2-yl)methoxy)quinazolin-4-yl)-2,5-diazabicyclo[2.2.2]octan-2-yl)-2-oxoethyl)thiazolidine-2,4-dione]
0.0001 to 10 µM: all assays above

O=C(CCCn1ccnc1)N1[C@@H]2CC[C@H]1CN(c1nc(OCC34CCCN3CCC4)nc3c(F)c(-c4cc(O)cc5ccccc45)ccc13)C2 [P-0351, 1-((1R,5S)-3-(8-fluoro-7-(3-hydroxynaphthalen-1-yl)-2-((tetrahydro-1H-pyrrolizin-7a(5H)-yl)methoxy)quinazolin-4-yl)-3,8-diazabicyclo[3.2.1]octan-8-yl)-4-(1H-imidazol-1-yl)butan-1-one]
0.0001 to 10 µM: all assays above

NS(=O)(=O)CC(=O)N1[C@@H]2CC[C@H]1CN(c1nc(OCC34CCCN3CCC4)nc3c(F)c(-c4cc(O)cc5ccccc45)ccc13)C2 [P-0352, 2-((1R,5S)-3-(8-fluoro-7-(3-hydroxynaphthalen-1-yl)-2-((tetrahydro-1H-pyrrolizin-7a(5H)-yl)methoxy)quinazolin-4-yl)-3,8-diazabicyclo[3.2.1]octan-8-yl)-2-oxoethane-1-sulfonamide]
0.0001 to 10 µM: all assays above

N#CCC(=O)N1[C@@H]2CC[C@H]1CN(c1nc(OCC34CCCN3CCC4)nc3c(F)c(-c4cc(O)cc5ccccc45)ccc13)C2 [P-0354, 3-((1R,5S)-3-(8-fluoro-7-(3-hydroxynaphthalen-1-yl)-2-((tetrahydro-1H-pyrrolizin-7a(5H)-yl)methoxy)quinazolin-4-yl)-3,8-diazabicyclo[3.2.1]octan-8-yl)-3-oxopropanenitrile]
0.0001 to 10 µM: all assays above

Reference: patent US20230081426A1, “COMPOUNDS AND METHODS FOR KRAS MODULATION AND INDICATIONS THEREFOR” (Plexxikon Inc., priority 2020, published 2023)
